The values that follow come from patent publication US20220243160A1, “Method and Apparatus for Interrogating Biological Systems” (Arizona Board of Regents on Behalf of the University of …, priority 2019, published 2022).

What all share (format): cell-based
The subject of one data set is Monolayer SKOV3 cells. In words: γ-H2AX / 53BP1 foci immunofluorescence after irradiation. Conditions: 0.7 μM 1 h before irradiation at 0 or 2 Gy, 6 h, 24 h after irradiation. Here is the method:
Cells were seeded on coverslip at a density of 5×10^4 per mL and exposed to DMSO or WD at a concentration of 0.7 μM 1 h before being irradiated at 0 or 2 Gy. The medium was removed and replaced by a drug-free medium immediately after irradiation. FIG. 6A. Images of immunofluorescence elicited in SKOV3 cells 1 h, 6 h and 24 h after irradiation taken using an Epifluorescence microscope at a magnification of 63×. […] Scale bar=10 μm. […] Values are normalized with non-irradiated cells, exposed to DMSO or WD respectively. […] Values are normalized with non-irradiated cells, exposed to DMSO or WD respectively. All the data are presented as the mean±SEM of at least 60 nuclei. *Significant differences as determined by Student's t-test (p<0.05).

In data set [1] the test system is spheroids of SKOV3 ovarian cancer cells. The data set is described as follows: Spheroid volume growth after drug and irradiation. The note with it: 0.7 μM 1 h before irradiation at 0 Gy or 4 Gy, followed 19 days. Here is the method: FIG. 8 includes a schematic overview of experiment. Cells were plated in an ultra-low affinity 96 well plate with a round bottom and allowed to form spheroids for 5 days. […] The medium containing drug was replaced by a drug-free medium after 4 days, then freshly changed twice a week for the rest of the experiment. Diameter of each spheroid was measured two or three times a week for 19 days with Micrometrics SE Premium software. Spheroid volume growth over time. Volume were normalized to day 0. Error bars represent mean±SEM for at least 5 replicates.

In the next data set the test system is SKOV3 spheroids. The data set is described as follows: MTT antiproliferative assay on SKOV3 spheroids. The note with it: for antiproliferative effect: SKOV3 spheroids; for IC50: SKOV3 spheroids (5 days formation), 48 h exposure. The protocol: Twenty thousand cells were seeded in an ultra-low affinity round bottom 96 well plates and 5 days were allowed for spheroids formation. […] Error bars represent mean±SEM from 3 independent experiments of at least 6 replicates each.
(In general: Tetrazolium dyes change colour on reduction, which living cells bring about.)

The test system of data set [2] is ovarian cancer cells cultivated in a 2D cell arrangement. The data set is described as follows: Clonogenic assay for radiosensitizing effect, 2D culture. The note with it: 0.7 μM 1 h before irradiation at 0, 2, 4 or 6 Gy. Here is the method: The radiosensitizing effect was assessed with a clonogenic assay. […] The medium was removed right after irradiation and replaced by a drug-free medium, changed twice a week for the rest of the experiment. Clonogenic assay was stopped when colonies containing at least 50 cells were observed under the microscope. Error bar represent mean±SEM from 3 independent experiments with at least 2 replicates each.

The next data set deals with NHEJ DNA repair pathway. The data set is described as follows: Western blot of DNA repair proteins after irradiation. Conditions: SKOV3 2D, 0.7 μM 1 h before irradiation at 0 or 2 Gy. Here is the method:
Western blot showing expression level of ATM, S1981pATM, DNA-PKcs, S2056pDNA-PKcs, XRCC4, RPA70 and RAD51 in SKOV3 cells cultivated in 2D. Cells were exposed to DMSO or WD at a concentration of 0.7 μM 1 h before undergoing an irradiation at 0 or 2 Gy. Proteins within cells were extracted 1 h, 6 h or 24 h after irradiation. A total of 5 μg of proteins was loaded. Bands intensities were quantified using ImageJ, normalized with GAPDH. Numbers represent expression level compared to non-irradiated cells. NI=Non-irradiated samples.

Data set [3] has as its system SKOV3 ovarian cancer cells. The data set is described as follows: MTT antiproliferative assay on SKOV3 cells in monolayer (2D). The note with it: for IC50: SKOV3 cells cultured in monolayer, 48 h exposure.

On to `CC1=C(C)C(=O)O[C@@H]([C@](C)(O)[C@H]2CC[C@H]3[C@@H]4C[C@H]5O[C@]56[C@@H](O)C=CC(=O)[C@]6(C)[C@H]4CC[C@]23C)C1` [WD, withanolide D], for which, in the data set with Monolayer SKOV3 cells, the “DNA DSBs (γ-H2AX and 53BP1 foci) versus DMSO” value was “more DNA DSBs over 24 h than those exposed to DMSO”. Also, the “radiosensitization of spheroids (normalized volume)” value in data set [1] is recorded as “do not radiosensitize”. Moreover, in the data set with SKOV3 spheroids, the antiproliferative effect result is recorded as “significant antiproliferative effect” and the IC50 (commonly the point on the concentration scale where inhibition reaches its midpoint) amounted to 16 µM. Further, the radiosensitizing effect entry in data set [2] is on record as “have a radiosensitizing effect”. The “mechanism of radiosensitization (expression of ATM, pATM, DNA-PKcs, pDNA-PKcs, XRCC4, RPA70, RAD51)” value in the data set on NHEJ DNA repair pathway is “inhibiting the NHEJ DNA repair pathway”. Moreover, the cytotoxic effect entry in data set [3] (SKOV3 2D, 0.156 to 80 μM, 48 h) is recorded as “dose-dependent cytotoxic effect”. Besides, the IC50 in data set [3] stood at 4.2 µM.

Consider `CC1=C(CO)C(=O)O[C@@H]([C@@H](C)[C@H]2CC[C@H]3[C@@H]4C[C@H]5O[C@]56[C@@H](O)C=CC(=O)[C@]6(C)[C@H]4CC[C@]23C)C1` [WFA, withaferin A], for which, in data set [1], the “radiosensitization of spheroids (normalized volume)” value is reported as “do not radiosensitize”. Moreover, in the data set on SKOV3 spheroids, the antiproliferative effect result is “significant antiproliferative effect” and inhibition was half-maximal at 23 µM (IC50). Further, the radiosensitizing effect result in data set [2] was “have a radiosensitizing effect”. This compound came in with an IC50 in data set [3] of 4.4 µM.
